Reference: publication PMC9697330, “Co-Delivery of 8-Hydroxyquinoline Glycoconjugates and Doxorubicin by Supramolecular Hydrogel Based on α-Cyclodextrin and pH-Responsive Micelles for Enhanced Tumor Treatment” (Pharmaceutics, 2022)
Like-named read-outs stand apart in the source and are kept apart here.

Key:
[1] = tested on: MCF-7 (human breast adenocarcinoma cell line); assay: MTT assay, cytotoxicity against MCF-7 cells; format: cell-based
From the text: (§1) The human breast adenocarcinoma cell line (MCF-7) was received from collections at the Maria Skłodowska-Curie Memorial Cancer Center and Institute of Oncology (Gliwice, Poland). The Normal Human Dermal Fibroblasts—Neonatal (NHDF-Neo) were purchased from LONZA (Cat. No. CC-2509, Lonza, Poland). The culture media consisted of DMEM + F12 medium, with 5% antibiotics (penicillin and streptomycin) and 10% fetal bovine serum. The culture media was bought from HyClone. Fetal bovine serum (FBS) was purchased from Eurx, Poland. Antibiotic Antimycotic Solution (100×) was purchased from Sigma-Aldrich, Germany.
(§2) The cytotoxicity of blank and drug-loaded SMH were evaluated using the MTT assay (Merck, Darmstadt, Germany). Briefly, human breast adenocarcinoma (MCF-7) or Normal Human Dermal Fibroblasts-Neonatal (NHDF-Neo) cells were seeded into 96-well plates at a concentration of 5 × 10^3 per well. The cell cultures were incubated for 24 h at 37 °C in a humidified atmosphere of 5% CO2. Afterward, the culture medium was removed, replaced with tested formulations, in a medium with varying concentrations, and incubated further for 24, 48, or 72 h, respectively. After that, the medium was removed and the MTT solution was added (0.5 mg·mL^−1 in PBS). After three hours of incubation, the MTT solution was taken off and the precipitated formazan was dissolved in dimethylsulfoxide. The absorbance was measured at 570 nm using a plate reader (Epoch, BioTek, Winooski, VT, USA). The experiments were performed in at least three independent repetitions, with four technical repeats for each tested concentration. The IC50 values were calculated using CalcuSyn software (ver. 2.0, Biosoft, Cambridge, UK). The IC50 parameter was defined as the compound concentration that was necessary to reduce the proliferation of cells to 50% of the untreated control. The results are presented as average values with standard deviations. […] Values of CI < 1 represent synergism; CI = 1 represents an additive interaction (i.e., no interaction); and CI > 1 represents antagonism.

[2] = tested on: NHDF-Neo (Normal Human Dermal Fibroblasts-Neonatal); assay: MTT assay, cytotoxicity against NHDF-Neo cells; format: cell-based
From the text: as §1, §2

[3] = NMR titration for host-guest inclusion complex of 8HQ-Glu with α-CD; format: physicochemical; settings: D2O, α-CD 10 mM, 8HQ-Glu 1 to 20 mM, 24 h at rt
Experimental: SMHs were prepared based on the host–guest interaction between the PEG chains of mPEG-b-PKPC or mPEG-b-PTMC micelles and α-CD. Typically, the lyophilized micelles were resuspended (15 mg·mL^−1) in PBS at pH 7.4, as a hydrogel precursor. Then, the same volume of 12% solution of α-CD in PBS was added to the micelle solution. The mixture was vortexed for 1 min followed by sonication for 1 min. The resultant mixture was allowed to stand still overnight for solidification. Firstly, gelation was visually observed by a simple vial inversion method. […] Thus, SMHs obtained (mPEG-b-PKPC^SMH or mPEG-b-PTMC^SMH) were used for characterization studies without any further modification. The transmittance of the α-CD and mPEG-b-PKPC^mic solution, measured at predetermined time intervals at 650 nm, immediately after mixing, was studied using a UV-Vis spectrophotometer JASCO V-570 (Tokyo, Japan). To confirm the formation of supramolecular hydrogels, the samples of mPEG5k, α-CD, mPEG-b-PKPC, or mPEG-b-PTMC, the lyophilized mPEG-b-PKPC^mic, or mPEG-b-PTMC^mic, the physical mixture of α-CD with the respective micelles, and freeze-dried SMHs were studied using the X-ray diffraction method (XRD). […] The samples were incubated for 24 h at rt with gentle shaking and the NMR spectra were measured.

| Host-guest inclusion complex formation with α-CD (in words) [3] | SMILES | IC50 ([1]; MCF-7, 24 h incubation, read-out: Activity IC50, as DOX concentration) | IC50 ([1]; MCF-7, 48 h incubation, read-out: Activity IC50, as DOX concentration) | IC50 ([1]; MCF-7, 72 h incubation, read-out: Activity IC50, as DOX concentration) | IC50 ([2]; 24 h incubation, read-out: Activity IC50, as DOX concentration) | IC50 ([2]; 48 h incubation, read-out: Activity IC50, as DOX concentration) | IC50 ([2]; 72 h incubation, read-out: Activity IC50, as DOX concentration) | IC50 ([1]; Homo sapiens, MCF7, MCF-7, 24 h incubation, read-out: Activity IC50, as 8HQ-Glu concentration) | IC50 ([1]; Homo sapiens, MCF7, MCF-7, 48 h incubation, read-out: Activity IC50, as 8HQ-Glu concentration) | IC50 ([1]; Homo sapiens, MCF7, MCF-7, 72 h incubation, read-out: Activity IC50, as 8HQ-Glu concentration) | IC50 ([2]; Homo sapiens, 24 h incubation, read-out: Activity IC50, as 8HQ-Glu concentration) | IC50 ([2]; Homo sapiens, 48 h incubation, read-out: Activity IC50, as 8HQ-Glu concentration) | IC50 ([2]; Homo sapiens, 72 h incubation, read-out: Activity IC50, as 8HQ-Glu concentration) |
| --- | --- | --- | --- | --- | --- | --- | --- | --- | --- | --- | --- | --- | --- |
|  | COc1cccc2c1C(=O)c1c(O)c3c(c(O)c1C2=O)C[C@@](O)(C(=O)CO)C[C@@H]3O[C@H]1C[C@H](N)[C@H](O)[C@H](C)O1 [DOX, doxorubicin] | 8.73 µM | 0.81 µM | 0.15 µM | > 20 µM | 9.8 µM | 0.39 µM |  |  |  |  |  |  |
| no inclusion complex formation | OC1O[C@H](Cn2cc(COc3cccc4cccnc34)nn2)[C@@H](O)[C@H](O)[C@H]1O (stereo partly drawn) [8HQ-Glu, 6-(4-(8-quinolinyloxymethyl)-1H-1,2,3-triazol-1-yl)-6-deoxy-D-glucopyranose] |  |  |  |  |  |  | 168 µM | 128 µM | 55.3 µM | > 200 µM | > 200 µM | > 200 µM |
